Experimental data taken from patent US7943774B2 (priority 2008, dated 2011).
Read-outs that look alike come from different tables or passages of the source.

Assay: log P (pH2.3)
Type: physicochemical
Conditions: for chromatographic logP: reversed-phase HPLC column (C18)
[1] = method [b]: LC-MS, acidic range, pH 2.7, 0.1% aqueous formic acid and acetonitrile
[2] = method [b]: LC-MS, acidic range, pH 2.7, 0.1% aqueous formic acid and acetonitrile, HPLC on reversed-phase C 18
[3] = method [c]: LC-MS, neutral range, pH 7.8, 0.001 molar aqueous ammonium bicarbonate solution and acetonitrile, HPLC on reversed-phase C 18
[4] = method [c]: LC-MS, neutral range, pH 7.8, 0.001 molar aqueous ammonium bicarbonate and acetonitrile

SMILES | log p [1] | further results
Cc1cc(C(F)(F)F)nn1CC(=O)N1CCC(c2nc(CCc3ccccc3)c(Br)s2)CC1 [Example I-78, 1-{4-[5-Bromo-4-(2-phenylethyl)-1,3-thiazol-2-yl]piperidin-1-yl}-2-[5-methyl-3-(trifluoromethyl)-1H-pyrazol-1-yl]ethanone] |  | chromatographic logP [1]: 4.71
CCc1cc(C(F)(F)F)nn1CC(=O)N1CCC(c2nc(C#Cc3cccc4ccccc34)cs2)CC1 [Example I-116] | 4.8^[b] | 
Cc1cc(C(F)(F)F)nn1CC(=O)N1CCC(c2nc(/C=C\c3ccc(Cl)cc3)cs2)CC1 [Example I-9] | 4.41^[b] | 
Cc1cc(C)n(CC(=O)N2CCC(c3nc(/C=C/c4cccc(C(F)(F)F)c4)cs3)CC2)n1 [Example I-96] | 3.56^[b] | 
CCCCC(=O)N1CCC(c2nc(CCc3ccccc3)cs2)CC1 [Example I-58, 1-{4-[4-(2-Phenylethyl)-1,3-thiazol-2-yl]piperidin-1-yl}pentan-1-one] |  | chromatographic logP [1]: 3.73
CC(C)(C)c1cc(C(F)(F)F)n(CC(=O)N2CCC(c3nc(CCc4cccc5ccccc45)cs3)CC2)n1 [Example I-110] | 5.36^[b] | 
Cc1ccccc1C#Cc1csc(C2CCN(C(=O)Cn3nc(C(F)F)cc3C(F)F)CC2)n1 [Example I-218] |  | log p [2]: 3.99^[b]; log p [3]: 4.02^[c];
O=C(c1cccc(C(F)(F)F)c1)N1CCC(c2nc(CCc3ccccc3)cs2)CC1 [Example I-62] | 4.23^[b] | 
O=C(Cn1ccc(C(F)(F)F)n1)N1CCC(c2nc(/C=C\c3ccc4ccccc4c3)cs2)CC1 [Example I-21] | 4.35^[b] | 
Cc1ccccc1CCc1csc(C2CCN(C(=O)Cn3nc(C(F)(F)F)cc3C)CC2)n1 [Example I-126] | 4.08^[b] | log p [4]: 4.16^[c];
Cc1cc(C(F)(F)F)nn1CC(=O)N1CCC(c2nc(/C=C\c3ccc4ccccc4c3)cs2)CC1 [Example I-20, 2-[5-Methyl-3-(trifluoromethyl)-1H-pyrazol-1-yl]-1-(4-{4-[(Z)-2-(2-naphthyl)vinyl]-1,3-thiazol-2-yl}piperidin-1-yl)ethanone] |  | chromatographic logP [1]: 4.61
C#Cc1csc(C2CCN(C(=O)Cn3nc(C(F)(F)F)cc3C)CC2)n1 [Example I-86, 1-[4-(4-Ethynyl-1,3-thiazol-2-yl)piperidin-1-yl]-2-[5-methyl-3-(trifluoromethyl)-1H-pyrazol-1-yl]ethanone] |  | chromatographic logP [1]: 2.57
Cc1cc(C(F)(F)F)nn1CC(=O)N1CCC(c2nc(/C=C/c3cccc(C(F)(F)F)c3)cs2)CC1 [Example I-94] | 4.46^[b] | 
Cc1noc(C)c1C#Cc1csc(C2CCN(C(=O)Cn3nc(C(F)F)cc3C(F)F)CC2)n1 [Example I-223] |  | log p [2]: 3.09^[b]
COc1ccc(CCC(=O)N2CCC(c3nc(CCc4ccccc4)cs3)CC2)cc1OC [Example I-66, 3-(3,4-Dimethoxyphenyl)-1-{4-[4-(2-phenylethyl)-1,3-thiazol-2-yl]piperidin-1-yl}propan-1-one] |  | chromatographic logP [1]: 3.43
Cc1cc(C(F)(F)F)nn1CC(=O)N1CCC(c2nc(CCc3ccc(Cl)cc3Cl)cs2)CC1 [Example I-123] | 4.74^[b] | log p [4]: 4.77^[c];
Cc1c(Cl)c(C(F)(F)F)nn1CC(=O)N1CCC(c2nc(/C=C\c3ccc(Cl)cc3)cs2)CC1 [Example I-11] | 4.92^[b] | 
CCc1cc(CC)n(CC(=O)N2CCC(c3nc(C#Cc4cccc5ccccc45)cs3)CC2)n1 [Example I-115] | 4.2^[b] | 
Cc1cc(C(F)F)n(CC(=O)N2CCC(c3nc(CCc4ccccc4)cs3)CC2)n1 [Example I-35] | 3.37^[b] | 

SMILES | log p [1] | further results
O=C(Cn1nc(C(F)(F)F)cc1C(F)(F)F)N1CCC(c2nc(C=Cc3ccccc3Br)cs2)CC1 (mixture of isomers) [Example I-175] |  | log p [2]: 4.99^[b]
Cc1ccccc1C#Cc1csc(C2CCN(C(=O)Cn3nc(C(F)(F)F)cc3C(F)(F)F)CC2)n1 [Example I-212] |  | log p [2]: 4.73^[b]
Cc1c(Cl)c(C(F)(F)F)nn1CC(=O)N1CCC(c2nc(/C=C\c3cccc(C(F)(F)F)c3)cs2)CC1 [Example I-17] | 5.03^[b] | 
Cc1cc(C(F)(F)F)nn1CC(=O)N1CCC(c2nc(CCc3c(F)cccc3F)cs2)CC1 [Example I-128] | 3.9^[b] | log p [4]: 3.97^[c],
Cc1ccc(C)c(CC(=O)N2CCC(c3nc(C#Cc4c(F)cccc4F)cs3)CC2)c1 [Example I-232] |  | log p [2]: 4.36^[b]; log p [3]: 4.39^[c];
Cc1cc(C(F)(F)F)nn1CC(=O)N1CCC(c2nc(C#Cc3ccc(Cl)cc3Cl)cs2)CC1 [Example I-105] | 4.72^[b] | 
Cc1cc(C(F)(F)F)nn1CC(=O)N1CCC(c2nc(/C=C\c3cccc(C(F)(F)F)c3)cs2)CC1 [Example I-15] | 4.51^[b] | 
CC(C)(C)c1cc(C(F)(F)C(F)(F)F)n(CC(=O)N2CCC(c3nc(CCc4cccc5ccccc45)cs3)CC2)n1 [Example I-112] | 5.78^[b] | 
Cc1cc(C)n(CC(=O)N2CCC(c3nc(CCc4ccccc4)cs3)CC2)n1 [Example I-54] |  | log p (method [a]: HPLC, acidic range, pH 2.3, 0.1% aqueous phosphoric acid and acetonitrile): 2.86^[a]
O=C(Cc1cc(Cl)ccc1Cl)N1CCC(c2nc(C#Cc3c(F)cccc3F)cs2)CC1 [Example I-226] |  | log p [2]: 4.52^[b]
Cc1ccccc1C=Cc1csc(C2CCN(C(=O)Cn3nc(C(F)(F)F)cc3C(F)(F)F)CC2)n1 (mixture of isomers) [Example I-174] |  | log p [2]: 4.93^[b]
CCc1cc(C(F)(F)F)nn1CC(=O)N1CCC(c2nc(CCc3cccc4ccccc34)cs2)CC1 [Example I-108] | 4.65^[b] | 
Cc1cc(C)n(CC(=O)N2CCC(c3nc(CCCC(C)c4ccccc4)cs3)CC2)n1 (stereo not shown) [Example I-83] | 3.83^[b] | 
Cc1nc(C2CCN(C(=O)Cn3nc(C(F)(F)F)cc3C)CC2)sc1CC(C)C [Example I-73] | 3.75^[b] | 
Cc1cccnc1C#Cc1csc(C2CCN(C(=O)Cn3nc(C(F)(F)F)cc3C)CC2)n1 [Example I-210] |  | log p [2]: 2.72^[b]; log p [3]: 2.95^[c];
Cc1cc(C(F)(F)F)nn1CC(=O)N1CCC(c2nc(C#Cc3ccc(Cl)cc3)cs2)CC1 [Example I-102] | 4.37^[b] | 
Cc1cccnc1C#Cc1csc(C2CCN(C(=O)Cc3cc(Cl)ccc3Cl)CC2)n1 [Example I-228] |  | log p [2]: 3.35^[b]; log p [3]: 3.55^[c]
Cc1cc(C(F)(F)F)nn1CC(=O)N1CCC(c2nc(CCC3CCCc4ccccc43)cs2)CC1 (stereo not shown) [Example I-133] | 4.95^[b] | 
O=C(Cn1ccc(C(F)(F)F)n1)N1CCC(c2nc(/C=C\c3cccc(C(F)(F)F)c3)cs2)CC1 [Example I-16] | 4.3^[b] | 

SMILES | log p [1] | further results
Cc1c(Cl)c(C(F)(F)F)nn1C(C)C(=O)N1CCC(c2nc(CCc3ccccc3)cs2)CC1 (stereo not shown) [Example I-64, 2-[4-Chloro-5-methyl-3-(trifluoromethyl)-1H-pyrazol-1-yl]-1-{4-[4-(2-phenylethyl)-1,3-thiazol-2-yl]piperidin-1-yl}propan-1-one] |  | chromatographic logP [1]: 4.62
O=C(Cn1cccn1)N1CCC(c2nc(CCc3ccccc3)cs2)CC1 [Example I-69] | 2.56^[b] | 
Cn1ncc(CC(=O)N2CCC(c3nc(CCc4ccccc4)cs3)CC2)c1Cl [Example I-65, 2-(5-Chloro-1-methyl-1H-pyrazol-4-yl)-1-{4-[4-(2-phenylethyl)-1,3-thiazol-2-yl]piperidin-1-yl}ethanone] |  | chromatographic logP [1]: 2.98
O=C(Cn1nc(C(F)F)cc1C(F)F)N1CCC(c2nc(CCC3CCCCC3)cs2)CC1 [Example I-148] |  | log p [2]: 4.87^[b]
Cc1cc(C)n(CC(=O)N2CCC(c3nc(/C=C\c4cccc5ccccc45)cs3)CC2)n1 [Example I-76] | 3.73^[b] | 
Cc1ccc(C)c(CC(=O)N2CCC(c3nc(C#Cc4ccccc4Br)cs3)CC2)c1 [Example I-231] |  | log p [2]: 4.77^[b]; log p [3]: 4.8^[c];
Cc1c(Cl)c(C(F)(F)F)nn1CC(=O)N1CCC(c2nc(CCc3ccccc3)cs2)CC1 [Example I-60] | 4.34^[b] | 
O=C(Cn1ccc(C(F)(F)F)n1)N1CCC(c2nc(CCc3ccccc3)cs2)CC1 [Example I-55] | 3.57^[b] | 
Cc1cc(C(F)(F)F)nn1CC(=O)N1CCC(c2nc(C#Cc3ccccc3)cs2)CC1 [Example I-99] | 3.82^[b] | 
Cc1noc(C)c1C#Cc1csc(C2CCN(C(=O)Cc3cc(Cl)ccc3Cl)CC2)n1 [Example I-229] |  | log p [2]: 3.86^[b]
Cc1c(Cl)c(C(F)(F)F)nn1CC(=O)N1CCC(c2nc(/C=C\c3ccc4ccccc4c3)cs2)CC1 [Example I-22] | 5.08^[b] | 
Cc1ccc(C)c(CC(=O)N2CCC(c3nc(C#Cc4c(C)noc4C)cs3)CC2)c1 [Example I-235] |  | log p [2]: 3.67^[b]; log p [3]: 3.71^[c];
O=C(Cn1ccc(C(F)(F)F)n1)N1CCC(c2nc(/C=C\c3ccc(Cl)cc3)cs2)CC1 [Example I-10] | 4.2^[b ] | 
CCc1cc(CC)n(CC(=O)N2CCC(c3nc(CCc4cccc5ccccc45)cs3)CC2)n1 [Example I-107] | 4.04^[b] | 
Cc1ccc(C)c(CC(=O)N2CCC(c3nc(CCc4ccccc4C)cs3)CC2)c1 [Example I-158] |  | log p [2]: 4.67^[b]; log p [3]: 4.77^[c];
Cc1cc(C(F)(F)F)nn1CC(=O)N1CCC(c2nc(CCC3CCCCC3)cs2)CC1 [Example I-132] | 5.01^[b] | 
Cc1cc(C(F)(F)F)nn1CC(=O)N1CCC(c2nc(/C=C/c3ccccc3)cs2)CC1 [Example I-26] | 3.99^[b] | 
COc1ccc(C#Cc2csc(C3CCN(C(=O)Cn4nc(C(F)(F)F)cc4C)CC3)n2)c(OC)c1 [Example I-104] | 3.67^[b] | 
Brc1sc(C2CCNCC2)nc1CCc1ccccc1 [II-3, 4-[5-Bromo-4-(2-phenylethyl)-1,3-thiazol-2-yl]piperidine] |  | log p (pH 2.3, pH2.3, read-out: log P): 1.72
